Experimental data taken from patent publication US11542240B2, “STK19 inhibitors for treatment of cancer” (TRUSTEES OF BOSTON UNIVERSITY, priority 2018, dated 2023).

Assays:
Test in all cases: biochemical
Assay type in all cases: binding
[1] = target: panel of 468 diverse kinases (Homo sapiens, UniProt P11362); conditions: FGFR1; 1000 nM; read-out: Percent Control
[2] = target: panel of 468 diverse kinases (Homo sapiens, UniProt P04049); conditions: RAF1; 1000 nM; read-out: Percent Control
[3] = target: panel of 468 diverse kinases (Homo sapiens, UniProt P30530); conditions: AXL; 1000 nM; read-out: Percent Control
[4] = target: panel of 468 diverse kinases (Homo sapiens, UniProt Q13873); conditions: BMPR2; 1000 nM; read-out: Percent Control
[5] = target: panel of 468 diverse kinases (Homo sapiens, UniProt Q9H4B4); conditions: PLK3; 1000 nM; read-out: Percent Control
[6] = target: panel of 468 diverse kinases (Homo sapiens, UniProt Q99755); conditions: PIP5KIV; 1000 nM; read-out: Percent Control
[7] = target: panel of 468 diverse kinases (Homo sapiens, UniProt P36888, D835H); conditions: FLT3(D835H); 1000 nM; read-out: Percent Control
[8] = target: panel of 468 diverse kinases (Homo sapiens, UniProt P45984); conditions: JNK2; 1000 nM; read-out: Percent Control
[9] = target: panel of 468 diverse kinases (Homo sapiens, UniProt Q07912); conditions: TNK2; 1000 nM; read-out: Percent Control
[10] = target: panel of 468 diverse kinases (Homo sapiens, UniProt Q9NRH2); conditions: SNRK; 1000 nM; read-out: Percent Control
[11] = target: panel of 468 diverse kinases (Homo sapiens, UniProt O14976); conditions: GAK; 1000 nM; read-out: Percent Control
[12] = target: panel of 468 diverse kinases (Homo sapiens, UniProt P29320); conditions: EPHA3; 1000 nM; read-out: Percent Control
[13] = target: panel of 468 diverse kinases (Homo sapiens, UniProt Q9BZL6); conditions: PRKD2; 1000 nM; read-out: Percent Control
[14] = target: panel of 468 diverse kinases (Homo sapiens, UniProt P11309); conditions: PIM1; 1000 nM; read-out: Percent Control
[15] = target: panel of 468 diverse kinases (Homo sapiens, UniProt P29317); conditions: EPHA2; 1000 nM; read-out: Percent Control
[16] = target: panel of 468 diverse kinases (Homo sapiens, UniProt Q9Y616); conditions: IRAK3; 1000 nM; read-out: Percent Control
[17] = target: panel of 468 diverse kinases (Homo sapiens, UniProt Q9HAZ1); conditions: CLK4; 1000 nM; read-out: Percent Control
[18] = target: panel of 468 diverse kinases (Homo sapiens, UniProt P68400); conditions: CSNK2A1; 1000 nM; read-out: Percent Control
[19] = target: panel of 468 diverse kinases (Homo sapiens, UniProt P08631); conditions: HCK; 1000 nM; read-out: Percent Control
[20] = target: panel of 468 diverse kinases (Homo sapiens, UniProt P16234); conditions: PDGFRA; 1000 nM; read-out: Percent Control
[21] = target: panel of 468 diverse kinases (Homo sapiens, UniProt P27448); conditions: MARK3; 1000 nM; read-out: Percent Control
[22] = target: panel of 468 diverse kinases (Homo sapiens, UniProt P51451); conditions: BLK; 1000 nM; read-out: Percent Control
[23] = target: panel of 468 diverse kinases (Homo sapiens, UniProt P16591); conditions: FER; 1000 nM; read-out: Percent Control
[24] = target: panel of 468 diverse kinases (Homo sapiens, UniProt O00444); conditions: PLK4; 1000 nM; read-out: Percent Control
[25] = target: panel of 468 diverse kinases (Homo sapiens, UniProt P42338); conditions: PIK3CB; 1000 nM; read-out: Percent Control
[26] = target: panel of 468 diverse kinases (Homo sapiens, UniProt P08069); conditions: IGF1R; 1000 nM; read-out: Percent Control
[27] = target: panel of 468 diverse kinases (Homo sapiens, UniProt P42336, H1047L); conditions: PIK3CA(H1047L); 1000 nM; read-out: Percent Control
[28] = target: panel of 468 diverse kinases (Homo sapiens, UniProt Q13163); conditions: MEK5; 1000 nM; read-out: Percent Control
[29] = target: panel of 468 diverse kinases (Homo sapiens, UniProt P49137); conditions: MAPKAPK2; 1000 nM; read-out: Percent Control
[30] = target: panel of 468 diverse kinases (Homo sapiens, UniProt P15056, V600E); conditions: BRAF(V600E); 1000 nM; read-out: Percent Control
[31] = target: panel of 468 diverse kinases (Homo sapiens, UniProt P00519, Y253F); conditions: ABL1(Y253F)-phosphorylated; 1000 nM; read-out: Percent Control

Sequence of panel of 468 diverse kinases (Homo sapiens, UniProt P29320) (P29320 21-983 limits assumed): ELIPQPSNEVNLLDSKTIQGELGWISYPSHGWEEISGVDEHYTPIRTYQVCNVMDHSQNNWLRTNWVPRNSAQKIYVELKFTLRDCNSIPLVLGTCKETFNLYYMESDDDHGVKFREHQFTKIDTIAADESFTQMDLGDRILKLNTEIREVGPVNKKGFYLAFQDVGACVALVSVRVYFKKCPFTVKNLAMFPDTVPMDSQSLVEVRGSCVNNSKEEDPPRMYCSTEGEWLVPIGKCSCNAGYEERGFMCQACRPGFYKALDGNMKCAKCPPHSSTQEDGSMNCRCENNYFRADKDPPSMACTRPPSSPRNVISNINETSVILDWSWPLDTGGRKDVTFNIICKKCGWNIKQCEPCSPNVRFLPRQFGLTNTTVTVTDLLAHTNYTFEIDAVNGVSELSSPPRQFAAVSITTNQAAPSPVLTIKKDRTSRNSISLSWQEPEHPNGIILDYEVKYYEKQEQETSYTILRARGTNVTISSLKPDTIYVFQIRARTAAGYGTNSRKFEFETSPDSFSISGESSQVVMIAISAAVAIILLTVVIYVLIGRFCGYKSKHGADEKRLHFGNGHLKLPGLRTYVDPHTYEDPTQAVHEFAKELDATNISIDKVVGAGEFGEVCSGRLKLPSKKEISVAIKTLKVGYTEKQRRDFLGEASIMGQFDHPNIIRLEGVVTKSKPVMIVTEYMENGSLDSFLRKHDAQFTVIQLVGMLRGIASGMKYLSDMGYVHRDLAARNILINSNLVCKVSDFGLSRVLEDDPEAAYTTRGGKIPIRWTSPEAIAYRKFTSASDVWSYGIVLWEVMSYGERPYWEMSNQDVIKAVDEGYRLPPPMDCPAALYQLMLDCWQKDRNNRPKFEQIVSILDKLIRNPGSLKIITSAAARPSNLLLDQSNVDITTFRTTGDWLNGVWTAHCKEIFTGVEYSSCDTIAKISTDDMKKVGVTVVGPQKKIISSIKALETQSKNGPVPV
Sequence of panel of 468 diverse kinases (Homo sapiens, UniProt P30530) (P30530 26-894 limits assumed): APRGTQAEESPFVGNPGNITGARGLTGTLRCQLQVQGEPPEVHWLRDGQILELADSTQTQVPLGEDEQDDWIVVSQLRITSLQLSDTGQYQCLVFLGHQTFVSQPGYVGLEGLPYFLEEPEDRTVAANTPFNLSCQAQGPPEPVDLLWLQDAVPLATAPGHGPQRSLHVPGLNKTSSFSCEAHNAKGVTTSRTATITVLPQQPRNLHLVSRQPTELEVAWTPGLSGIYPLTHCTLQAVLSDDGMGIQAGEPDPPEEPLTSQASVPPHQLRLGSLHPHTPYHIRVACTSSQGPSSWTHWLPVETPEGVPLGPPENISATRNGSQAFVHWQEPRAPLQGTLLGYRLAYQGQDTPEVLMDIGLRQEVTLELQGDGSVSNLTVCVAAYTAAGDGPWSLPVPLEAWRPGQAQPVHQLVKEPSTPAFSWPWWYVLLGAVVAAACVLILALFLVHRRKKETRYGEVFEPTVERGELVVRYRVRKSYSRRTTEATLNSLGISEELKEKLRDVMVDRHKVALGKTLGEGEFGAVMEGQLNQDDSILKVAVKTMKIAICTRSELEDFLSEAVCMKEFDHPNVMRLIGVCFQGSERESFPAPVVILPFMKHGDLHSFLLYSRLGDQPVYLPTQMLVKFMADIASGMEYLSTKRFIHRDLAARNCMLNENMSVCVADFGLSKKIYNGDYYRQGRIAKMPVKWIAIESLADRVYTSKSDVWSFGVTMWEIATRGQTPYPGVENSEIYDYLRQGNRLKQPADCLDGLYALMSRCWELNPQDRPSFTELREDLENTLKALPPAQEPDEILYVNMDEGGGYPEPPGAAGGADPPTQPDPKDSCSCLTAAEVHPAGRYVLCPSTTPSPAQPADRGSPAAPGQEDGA
Sequence of panel of 468 diverse kinases (Homo sapiens, UniProt P08631) (P08631 2-526 limits assumed): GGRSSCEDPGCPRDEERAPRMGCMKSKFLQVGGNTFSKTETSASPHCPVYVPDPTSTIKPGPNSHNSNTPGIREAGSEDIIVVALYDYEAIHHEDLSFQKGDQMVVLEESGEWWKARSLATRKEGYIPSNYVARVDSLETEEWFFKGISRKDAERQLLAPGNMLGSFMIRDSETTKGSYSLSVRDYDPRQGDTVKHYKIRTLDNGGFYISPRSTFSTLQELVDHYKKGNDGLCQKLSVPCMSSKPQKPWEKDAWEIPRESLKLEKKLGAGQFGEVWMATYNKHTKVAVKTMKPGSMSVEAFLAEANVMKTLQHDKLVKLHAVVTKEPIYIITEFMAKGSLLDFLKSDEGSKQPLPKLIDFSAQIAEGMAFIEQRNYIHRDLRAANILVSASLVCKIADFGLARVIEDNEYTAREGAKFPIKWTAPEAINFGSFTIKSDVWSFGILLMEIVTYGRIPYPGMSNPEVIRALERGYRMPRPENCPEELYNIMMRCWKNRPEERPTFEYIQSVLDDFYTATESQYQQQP
Sequence of panel of 468 diverse kinases (Homo sapiens, UniProt P15056, V600E) (P15056 2-766 V600E limits assumed): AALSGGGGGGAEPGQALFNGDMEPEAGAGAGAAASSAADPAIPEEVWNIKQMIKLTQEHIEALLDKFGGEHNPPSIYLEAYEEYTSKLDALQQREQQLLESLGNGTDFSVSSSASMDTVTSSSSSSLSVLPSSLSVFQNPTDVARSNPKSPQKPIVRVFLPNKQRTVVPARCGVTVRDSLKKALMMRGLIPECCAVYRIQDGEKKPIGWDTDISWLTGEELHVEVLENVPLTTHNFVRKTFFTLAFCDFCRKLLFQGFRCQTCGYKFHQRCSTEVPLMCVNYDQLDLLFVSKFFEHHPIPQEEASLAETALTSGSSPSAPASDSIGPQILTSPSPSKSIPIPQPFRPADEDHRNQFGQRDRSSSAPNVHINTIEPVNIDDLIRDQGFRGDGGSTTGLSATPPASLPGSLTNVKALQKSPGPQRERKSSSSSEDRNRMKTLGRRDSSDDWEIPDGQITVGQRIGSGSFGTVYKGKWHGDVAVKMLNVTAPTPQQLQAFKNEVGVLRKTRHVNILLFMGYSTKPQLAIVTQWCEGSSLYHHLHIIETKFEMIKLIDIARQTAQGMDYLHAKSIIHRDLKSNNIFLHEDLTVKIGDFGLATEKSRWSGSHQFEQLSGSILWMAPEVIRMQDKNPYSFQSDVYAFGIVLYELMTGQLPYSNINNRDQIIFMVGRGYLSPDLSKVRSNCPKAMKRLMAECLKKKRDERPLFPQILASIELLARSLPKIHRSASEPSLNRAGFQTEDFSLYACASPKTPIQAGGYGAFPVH
Sequence of panel of 468 diverse kinases (Homo sapiens, UniProt P08069) (P08069 31-736 limits assumed): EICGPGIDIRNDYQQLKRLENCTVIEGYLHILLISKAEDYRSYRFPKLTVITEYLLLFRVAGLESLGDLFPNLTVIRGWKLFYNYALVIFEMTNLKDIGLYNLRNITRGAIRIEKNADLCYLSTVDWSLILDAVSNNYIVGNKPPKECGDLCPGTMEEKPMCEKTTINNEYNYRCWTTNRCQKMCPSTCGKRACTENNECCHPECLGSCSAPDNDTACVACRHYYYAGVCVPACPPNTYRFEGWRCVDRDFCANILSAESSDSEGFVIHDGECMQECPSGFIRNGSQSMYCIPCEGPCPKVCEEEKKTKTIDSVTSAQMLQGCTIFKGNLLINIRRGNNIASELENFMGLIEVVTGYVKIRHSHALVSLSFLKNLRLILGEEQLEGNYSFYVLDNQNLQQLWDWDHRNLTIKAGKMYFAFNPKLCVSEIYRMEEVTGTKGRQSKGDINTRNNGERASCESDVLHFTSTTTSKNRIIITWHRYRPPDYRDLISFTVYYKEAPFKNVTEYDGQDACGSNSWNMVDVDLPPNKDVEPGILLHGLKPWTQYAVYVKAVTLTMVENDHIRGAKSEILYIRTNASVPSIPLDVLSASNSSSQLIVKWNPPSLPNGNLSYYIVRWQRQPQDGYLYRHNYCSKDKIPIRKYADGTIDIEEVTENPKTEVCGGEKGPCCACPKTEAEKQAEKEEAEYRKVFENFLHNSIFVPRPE
Sequence of panel of 468 diverse kinases (Homo sapiens, UniProt P08069) (P08069 741-1367 limits assumed): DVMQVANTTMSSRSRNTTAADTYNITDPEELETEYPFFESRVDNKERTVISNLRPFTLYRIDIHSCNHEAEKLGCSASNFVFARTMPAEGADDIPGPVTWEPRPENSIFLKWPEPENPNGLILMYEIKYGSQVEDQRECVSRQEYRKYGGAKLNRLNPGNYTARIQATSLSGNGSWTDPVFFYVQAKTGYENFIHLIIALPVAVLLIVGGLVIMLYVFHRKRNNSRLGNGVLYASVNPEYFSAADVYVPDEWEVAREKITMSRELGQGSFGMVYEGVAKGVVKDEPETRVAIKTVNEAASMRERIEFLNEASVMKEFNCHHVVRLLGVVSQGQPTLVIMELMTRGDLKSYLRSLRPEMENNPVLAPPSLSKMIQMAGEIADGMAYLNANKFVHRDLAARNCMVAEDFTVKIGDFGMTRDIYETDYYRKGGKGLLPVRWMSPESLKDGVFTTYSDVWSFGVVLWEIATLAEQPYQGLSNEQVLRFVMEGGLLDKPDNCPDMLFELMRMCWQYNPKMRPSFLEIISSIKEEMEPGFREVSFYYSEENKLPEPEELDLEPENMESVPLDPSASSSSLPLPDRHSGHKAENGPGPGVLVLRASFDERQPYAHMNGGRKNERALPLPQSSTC
Sequence of panel of 468 diverse kinases (Homo sapiens, UniProt P51451) (P51451 2-505 limits assumed): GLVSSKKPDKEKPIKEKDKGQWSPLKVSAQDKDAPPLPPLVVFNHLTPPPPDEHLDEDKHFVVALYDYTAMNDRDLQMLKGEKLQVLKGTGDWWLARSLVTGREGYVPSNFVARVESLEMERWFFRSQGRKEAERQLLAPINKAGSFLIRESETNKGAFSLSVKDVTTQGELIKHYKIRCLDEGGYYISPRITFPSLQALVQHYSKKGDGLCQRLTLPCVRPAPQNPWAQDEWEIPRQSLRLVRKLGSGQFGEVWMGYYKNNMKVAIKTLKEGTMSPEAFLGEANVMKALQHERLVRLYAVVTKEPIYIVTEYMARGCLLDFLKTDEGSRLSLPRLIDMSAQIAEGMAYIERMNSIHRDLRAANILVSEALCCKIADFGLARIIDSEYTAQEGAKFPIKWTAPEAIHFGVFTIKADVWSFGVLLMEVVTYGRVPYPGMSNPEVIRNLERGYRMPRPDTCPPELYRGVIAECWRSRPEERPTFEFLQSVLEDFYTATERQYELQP

With COc1cc2nc(NC3CC3)nc(NC3CCN(C(C)C)CC3)c2cc1OC [Formula IV] the remaining activity at 1 µM [1] was 100%, the remaining activity at 1 µM [2] was 83% and the remaining activity at 1 µM [3] was 94%. For the same compound, the remaining activity at 1 µM [4] was 40%, the remaining activity at 1 µM [5] was 68% and the remaining activity at 1 µM [6] was 96%. For the same compound, the remaining activity at 1 µM [7] was 81%, the remaining activity at 1 µM [8] was 45% and the remaining activity at 1 µM [9] was 100%. The remaining activity at 1 µM [10] was 78%, the remaining activity at 1 µM [11] was 92% and the remaining activity at 1 µM [12] was 93%. The remaining activity at 1 µM [13] was 64%, the remaining activity at 1 µM [14] was 90% and the remaining activity at 1 µM [15] was 100%. It also gave a remaining activity at 1 µM [16] of 99%, a remaining activity at 1 µM [17] of 69% and a remaining activity at 1 µM [18] of 61%. For the same compound, the remaining activity at 1 µM [19] was 95%, the remaining activity at 1 µM [20] was 75% and the remaining activity at 1 µM [21] was 100%. It also gave a remaining activity at 1 µM [22] of 100%, a remaining activity at 1 µM [23] of 90% and a remaining activity at 1 µM [24] of 58%. For the same compound, the remaining activity at 1 µM [25] was 71%, the remaining activity at 1 µM [26] was 97% and the remaining activity at 1 µM [27] was 90%. The remaining activity at 1 µM [28] was 60%, the remaining activity at 1 µM [29] was 100% and the remaining activity at 1 µM [30] was 89%. For the same compound, the remaining activity at 1 µM [31] was 100%.
